Like-named read-outs stand apart in the source and are kept apart here. Blank lines part the entries; values can stand above or below the compound they belong to.
Assays:
Hsp70 [1] = biological target: T1, Hsp70 (Homo sapiens, UniProt P0DMV8); experiment: microscale thermophoresis (also DARTS; inhibition of substrate binding and luciferase refolding by Hsp70)
T1 construct: gene HSPA1A; Recombinant human Hsp70

Hsp70 [2] = biological target: T1, Hsp70; experiment: inhibition of Hsp70 binding to carboxymethylated lactalbumin ([…] at […]); luciferase refolding ([…] at […]); assay type: biochemical
Hsp70 [3] = biological target: T1, Hsp70; experiment: as above; assay type: biochemical; remark: listed apart in the source

T1 sequence (P0DMV8 2-641): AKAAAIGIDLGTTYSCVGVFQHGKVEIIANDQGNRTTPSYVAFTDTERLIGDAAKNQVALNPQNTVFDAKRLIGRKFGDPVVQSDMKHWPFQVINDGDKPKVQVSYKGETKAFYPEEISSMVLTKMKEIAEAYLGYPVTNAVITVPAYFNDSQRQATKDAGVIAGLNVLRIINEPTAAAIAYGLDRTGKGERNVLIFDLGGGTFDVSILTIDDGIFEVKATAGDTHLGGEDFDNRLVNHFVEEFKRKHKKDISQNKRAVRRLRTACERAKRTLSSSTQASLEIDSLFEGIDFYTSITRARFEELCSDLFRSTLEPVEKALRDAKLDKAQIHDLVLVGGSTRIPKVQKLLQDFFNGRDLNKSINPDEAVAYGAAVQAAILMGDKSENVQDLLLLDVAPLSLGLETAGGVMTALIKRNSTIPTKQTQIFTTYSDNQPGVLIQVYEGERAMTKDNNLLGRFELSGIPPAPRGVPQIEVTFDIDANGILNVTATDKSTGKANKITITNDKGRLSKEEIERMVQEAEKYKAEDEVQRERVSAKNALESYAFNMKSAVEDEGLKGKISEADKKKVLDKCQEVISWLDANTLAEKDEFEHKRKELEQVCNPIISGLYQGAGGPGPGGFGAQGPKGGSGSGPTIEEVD

Compound: COc1cc2c(c(OC)c1OC)-c1ccc(NCCN)c(=O)cc1[C@@H](NC(C)=O)CC2 [AEAC]
Kd (Hsp70 [1]): 149 ± 49.6 nM

inhibition at 1 µM (Hsp70 [2]): 19%
Compound: N#Cc1ccc(COC[C@H]2O[C@@H](n3c(NCc4ccc(Cl)c(Cl)c4)nc4c(N)ncnc43)[C@H](O)[C@@H]2O)cc1 [VER-155008]

inhibition at 1 µM (Hsp70 [3]): 27%
Compound: CCn1c(=Cc2cccc[n+]2CC)sc(=C2Sc3ccccc3N2C)c1=O [MKT-077]

Source: article PMC5833849, “Sensitizing tumor cells to conventional drugs: HSP70 chaperone inhibitors, their selection and application in cancer models” (Cell Death & Disease, 2018)
